Data taken from patent US8022206B2 (OSI Pharmaceuticals, LLC, priority 2008, dated 2011).

Experiments:
MET (human) = MET (human) (Homo sapiens, UniProt P08581); assay: MET (human) AlphaScreen kinase assay, Km of ATP; format: biochemical; settings: AlphaScreen, Km of ATP; read-out: Met biochemical IC50
In short: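 Human MET at lot-optimised concentration in 50 mM Tris pH 7.4 buffer with 1 mM DTT, compound at 1% DMSO final; enzyme starts the reaction, 60 min at RT.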

RON (human) = RON (human) (Homo sapiens, UniProt Q04912); assay: RON (human) AlphaScreen kinase assay, Km of ATP; format: biochemical; settings: AlphaScreen, Km of ATP; read-out: RON biochemical IC50
Sequence of RON (human) (Q04912 25-1400): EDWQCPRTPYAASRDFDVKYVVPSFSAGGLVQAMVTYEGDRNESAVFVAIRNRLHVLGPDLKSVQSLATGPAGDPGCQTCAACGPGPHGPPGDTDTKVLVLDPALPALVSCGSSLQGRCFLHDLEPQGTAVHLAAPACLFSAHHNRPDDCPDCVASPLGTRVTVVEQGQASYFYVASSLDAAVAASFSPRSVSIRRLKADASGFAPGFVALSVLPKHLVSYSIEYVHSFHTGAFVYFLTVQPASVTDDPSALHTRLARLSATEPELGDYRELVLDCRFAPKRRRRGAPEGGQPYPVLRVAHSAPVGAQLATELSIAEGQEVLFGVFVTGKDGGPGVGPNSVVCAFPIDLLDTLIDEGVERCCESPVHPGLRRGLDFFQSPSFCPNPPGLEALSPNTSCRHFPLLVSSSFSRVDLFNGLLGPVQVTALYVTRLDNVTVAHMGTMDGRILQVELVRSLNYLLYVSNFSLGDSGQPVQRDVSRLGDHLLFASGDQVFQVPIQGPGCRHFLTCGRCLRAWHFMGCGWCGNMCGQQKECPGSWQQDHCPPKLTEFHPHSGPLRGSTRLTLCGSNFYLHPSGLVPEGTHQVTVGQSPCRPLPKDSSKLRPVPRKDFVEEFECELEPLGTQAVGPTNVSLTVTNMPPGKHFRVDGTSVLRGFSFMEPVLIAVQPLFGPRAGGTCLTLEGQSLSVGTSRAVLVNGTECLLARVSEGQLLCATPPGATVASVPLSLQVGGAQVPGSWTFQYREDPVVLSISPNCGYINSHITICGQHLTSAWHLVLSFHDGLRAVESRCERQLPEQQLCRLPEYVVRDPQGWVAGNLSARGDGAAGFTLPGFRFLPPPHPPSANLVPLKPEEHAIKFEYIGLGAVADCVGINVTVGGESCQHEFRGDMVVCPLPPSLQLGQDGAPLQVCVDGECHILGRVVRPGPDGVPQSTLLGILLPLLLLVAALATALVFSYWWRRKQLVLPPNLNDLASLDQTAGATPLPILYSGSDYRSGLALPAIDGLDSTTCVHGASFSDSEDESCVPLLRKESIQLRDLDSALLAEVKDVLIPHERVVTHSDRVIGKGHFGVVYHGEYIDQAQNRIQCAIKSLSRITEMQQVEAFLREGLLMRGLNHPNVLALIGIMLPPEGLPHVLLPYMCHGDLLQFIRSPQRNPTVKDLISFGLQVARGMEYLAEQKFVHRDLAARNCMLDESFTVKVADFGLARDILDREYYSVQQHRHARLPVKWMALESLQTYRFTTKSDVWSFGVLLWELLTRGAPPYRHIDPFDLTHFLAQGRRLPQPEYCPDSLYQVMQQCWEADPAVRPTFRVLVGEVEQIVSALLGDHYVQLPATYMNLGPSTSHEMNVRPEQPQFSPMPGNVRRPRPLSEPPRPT
In short: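 Detection used PT66 AlphaScreen beads added in Tris pH 7.5/NaCl/EDTA/BSA buffer, read after 1 h incubation. Vehicle-only DMSO wells served as controls.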

Sequence of MET (human) (P08581 25-1390): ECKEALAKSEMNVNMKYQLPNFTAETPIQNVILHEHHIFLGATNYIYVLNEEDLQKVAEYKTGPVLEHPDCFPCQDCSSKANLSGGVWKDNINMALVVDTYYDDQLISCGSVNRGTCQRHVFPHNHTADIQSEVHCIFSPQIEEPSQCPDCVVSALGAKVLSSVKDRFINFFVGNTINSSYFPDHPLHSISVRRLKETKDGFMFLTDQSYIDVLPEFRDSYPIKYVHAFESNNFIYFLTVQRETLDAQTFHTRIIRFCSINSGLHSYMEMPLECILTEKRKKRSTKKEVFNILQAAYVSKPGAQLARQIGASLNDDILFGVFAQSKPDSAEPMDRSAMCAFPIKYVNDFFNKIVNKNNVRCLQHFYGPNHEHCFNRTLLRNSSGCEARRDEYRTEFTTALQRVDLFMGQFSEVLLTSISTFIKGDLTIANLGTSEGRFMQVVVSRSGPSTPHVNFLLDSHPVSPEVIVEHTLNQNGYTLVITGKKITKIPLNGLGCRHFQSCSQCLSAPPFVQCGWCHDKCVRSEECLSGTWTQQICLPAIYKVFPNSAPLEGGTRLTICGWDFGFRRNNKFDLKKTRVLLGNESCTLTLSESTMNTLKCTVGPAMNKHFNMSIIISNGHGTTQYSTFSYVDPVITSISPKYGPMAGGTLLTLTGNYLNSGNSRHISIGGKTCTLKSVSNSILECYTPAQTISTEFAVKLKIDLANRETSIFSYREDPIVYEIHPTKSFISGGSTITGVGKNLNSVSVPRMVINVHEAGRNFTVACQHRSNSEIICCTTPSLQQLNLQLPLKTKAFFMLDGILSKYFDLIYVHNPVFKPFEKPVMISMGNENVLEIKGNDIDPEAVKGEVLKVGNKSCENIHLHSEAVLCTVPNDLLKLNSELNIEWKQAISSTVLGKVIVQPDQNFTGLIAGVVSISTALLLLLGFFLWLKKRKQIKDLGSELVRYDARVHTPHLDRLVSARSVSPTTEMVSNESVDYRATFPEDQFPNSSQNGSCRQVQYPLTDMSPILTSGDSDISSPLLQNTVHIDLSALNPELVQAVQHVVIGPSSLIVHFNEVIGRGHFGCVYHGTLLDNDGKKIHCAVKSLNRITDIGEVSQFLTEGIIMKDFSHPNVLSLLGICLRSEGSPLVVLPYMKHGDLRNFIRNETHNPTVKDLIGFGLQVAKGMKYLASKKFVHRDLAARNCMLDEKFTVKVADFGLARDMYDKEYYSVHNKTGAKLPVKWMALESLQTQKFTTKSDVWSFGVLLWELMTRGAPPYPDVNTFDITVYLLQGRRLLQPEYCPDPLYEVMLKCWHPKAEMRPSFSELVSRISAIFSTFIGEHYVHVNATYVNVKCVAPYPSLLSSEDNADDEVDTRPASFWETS

Row | IC50 (MET (human)) [nM] | IC50 (RON (human)) [nM] | SMILES
1 | 500 to 5000 | 500 to 5000 | C[C@@H](Oc1c(N)ncc2c(-c3cnn(CCN4CCOCC4)c3)coc12)c1c(Cl)ccc(F)c1Cl [Example 87, 7-[(R)-1-(2,6-Dichloro-3-fluorophenyl)ethoxy]-3-[1-(2-morpholin-4-ylethyl)-1H-pyrazol-4-yl]furo[3,2-c]pyridin-6-ylamine]
2 | 500 to 5000 | 500 to 5000 | CCOC(=O)N1CC=C(c2coc3c(O[C@H](C)c4c(Cl)ccc(F)c4Cl)c(N)ncc23)CC1 [Example 51, 4-{6-Amino-7-[(R)-1-(2,6-dichloro-3-fluorophenyl)-ethoxy]-furo[3,2-c]pyridin-3-yl}-3,6-dihydro-2H-pyridine-1-carboxylic acid ethyl ester]
3 | 500 to 5000 | 500 to 5000 | C[C@@H](Oc1c(N)ncc2c(-c3ccc(C(=O)O)cc3)coc12)c1c(Cl)ccc(F)c1Cl [Example 65, 4-{6-Amino-7-[(R)-1-(2,6-dichloro-3-fluorophenyl)ethoxy]-furo[3,2-c]pyridin-3-yl}benzoic Acid]
4 | < 500 | 500 to 5000 | C[C@@H](Oc1c(N)ncc2c(-c3cccc(C(=O)N4CCN(C)CC4)c3)coc12)c1c(Cl)ccc(F)c1Cl [Example 94, (3-{6-Amino-7-[(R)-1-(2,6-dichloro-3-fluorophenyl)ethoxy]furo[3,2-c]pyridin-3-yl}phenyl)(4-methylpiperazin-1-yl)methanone]
5 | 500 to 5000 | 500 to 5000 | C[C@@H](Oc1c(N)ncc2c(C3=CCN(C(=O)C4CCCCC4)CC3)coc12)c1c(Cl)ccc(F)c1Cl [Example 16, (4-{6-Amino-7-[(R)-1-(2,6-dichloro-3-fluorophenyl)-ethoxy]-furo[3,2-c]pyridin-3-yl}-3,6-dihydro-2H-pyridin-1-yl)-cyclohexylmethanone]
6 | 500 to 5000 | 500 to 5000 | C[C@@H](Oc1c(N)ncc2c(-c3ccc(C(=O)N4CCC(O)C4)cc3)coc12)c1c(Cl)ccc(F)c1Cl (some centres unmarked) [Example 299]
7 | 500 to 5000 | 500 to 5000 | C[C@@H](Oc1c(N)ncc2c(C3=CCN(C(=O)C(N)C(F)(F)F)CC3)coc12)c1c(Cl)ccc(F)c1Cl (stereo partly drawn) [Example 260, 2-Amino-1-[4-{6-amino-7-[(1R)-1-(2,6-dichloro-3-fluorophenyl)-ethoxy]furo[3,2-c]pyridin-3-yl}-3,6-dihydropyridin-1(2H)-yl]-3,3,3-trifluoropropan-1-one]
8 | 500 to 5000 | 5000 to 20000 | C[C@@H](Oc1c(N)ncc2c(-c3ccnc4ccccc34)coc12)c1c(Cl)ccc(F)c1Cl [Example 92, 7-[(R)-1-(2,6-Dichloro-3-fluorophenyl)ethoxy]-3-quinolin-4-ylfuro[3,2-c]pyridin-6-ylamine]
9 | 5000 to 20000 | 5000 to 20000 | CC(C)NC(=O)c1csc(-c2coc3c(O[C@H](C)c4c(Cl)ccc(F)c4Cl)c(N)ncc23)c1 [Example 330, 5-{6-Amino-7-[(R)-1-(2,6-dichloro-3-fluorophenyl)ethoxy]furo[3,2-c]pyridin-3-yl}thiophene-3-carboxylic acid Isopropylamide]
10 | < 500 | < 500 | C[C@@H](Oc1c(N)ncc2c(-c3ccc(CN4CCC(O)CC4)s3)coc12)c1c(Cl)ccc(F)c1Cl [Example 216, 1-(5-{6-Amino-7-[(R)-1-(2,6-dichloro-3-fluorophenyl)ethoxy]-furo[3,2-c]pyridin-3-yl}-thiophen-2-ylmethyl)piperidin-4-ol]
11 | < 500 | 500 to 5000 | C[C@@H](Oc1c(N)ncc2c(C3=CCSCC3)coc12)c1c(Cl)ccc(F)c1Cl [Example 139, 7-[(R)-1-(2,6-Dichloro-3-fluorophenyl)-ethoxy]-3-(3,6-dihydro-2H-thiopyran-4-yl)-furo[3,2-c]pyridin-6-ylamine]
12 | < 500 | < 500 | C[C@@H](Oc1c(N)ncc2c(C3=CCN(C(=O)CN)CC3)coc12)c1c(Cl)ccc(F)c1Cl [Example 253, 2-Amino-1-[4-{6-amino-7-[(1R)-1-(2,6-dichloro-3-fluorophenyl)ethoxy]furo[3,2-c]pyridin-3-yl}-3,6-dihydropyridin-1(2H)-yl]ethanone]
13 | < 500 | 500 to 5000 | CC(Oc1c(N)ncc2c(-c3cnn(C4CCNCC4)c3)coc12)c1ccccc1Br (centres unmarked) [Example 400, 7-[1-(2-Bromophenyl)ethoxy]-3-(1-piperidin-4-yl-1H-pyrazol-4-yl)furo[3,2-c]pyridin-6-ylamine]
14 | 500 to 5000 | 5000 to 20000 | Cn1c(Cc2ccccc2)ncc(-c2ccc(COc3c(N)ncc4c(Br)coc34)cc2)c1=O [Example 465, 5-[4-(6-Amino-3-bromofuro[3,2-c]pyridin-7-yloxymethyl)phenyl]-2-benzyl-3-methyl-3H-pyrimidin-4-one]
15 | 500 to 5000 | 500 to 5000 | C[C@@H](Oc1c(N)ncc2c(-c3cnc(N4CCOCC4)nc3)coc12)c1c(Cl)ccc(F)c1Cl [Example 283, 7-[(R)-1-(2,6-Dichloro-3-fluorophenyl)ethoxy]-3-(2-morpholin-4-ylpyrimidin-5-yl)furo[3,2-c]pyridin-6-ylamine]
16 | < 500 | 500 to 5000 | C[C@@H](Oc1c(N)ncc2c(C3=CCCN(C(N)=O)C3)coc12)c1c(Cl)ccc(F)c1Cl [Example 143, 5-{6-Amino-7-[(R)-1-(2,6-dichloro-3-fluorophenyl)ethoxy]furo[3,2-c]pyridin-3-yl}-3,6-dihydro-2H-pyridine-1-carboxamide]
17 | < 500 | 500 to 5000 | C[C@@H](Oc1c(N)ncc2c(-c3cccc(CN)c3)coc12)c1c(Cl)ccc(F)c1Cl [Example 90, 3-(3-Aminomethylphenyl)-7-[(R)-1-(2,6-dichloro-3-fluorophenyl)-ethoxy]furo[3,2-c]pyridin-6-ylamine]
18 | < 500 | < 500 | C[C@@H](Oc1c(N)ncc2c(-c3cccc(CN4CCCCC4)c3)coc12)c1c(Cl)ccc(F)c1Cl [Example 91, 7-[(R)-1-(2,6-Dichloro-3-fluorophenyl)ethoxy]-3-(3-piperidin-1-ylmethylphenyl)furo[3,2-c]pyridin-6-ylamine]
19 | < 500 | 500 to 5000 | C[C@@H](Oc1c(N)ncc2c(C3=CCN(C(=O)C(O)C(F)(F)F)CC3)coc12)c1c(Cl)ccc(F)c1Cl (stereo partly drawn) [Example 270, 1-[4-{6-Amino-7-[(1R)-1-(2,6-dichloro-3-fluorophenyl)ethoxy]furo[3,2-c]pyridin-3-yl}-3,6-dihydropyridin-1(2H)-yl]-3,3,3-trifluoro-2-hydroxypropan-1-one]
20 | 500 to 5000 | 500 to 5000 | CC(Cc1c(Cl)cccc1Cl)Oc1c(N)ncc2c(-c3cnn(C4CCNCC4)c3)coc12 (centres unmarked) [Example 417, 7-[2-(2,6-Dichlorophenyl)-1-methylethoxy]-3-(1-piperidin-4-yl-1H-pyrazol-4-yl)furo[3,2-c]pyridin-6-ylamine]
21 | 500 to 5000 | 500 to 5000 | C[C@@H](Oc1c(N)ncc2c(C3=CCN(C(=O)OC4CCCC4)CC3)coc12)c1c(Cl)ccc(F)c1Cl [Example 54, 4-{6-Amino-7-[(R)-1-(2,6-dichloro-3-fluorophenyl)-ethoxy]-furo[3,2-c]pyridin-3-yl}-3,6-dihydro-2H-pyridine-1-carboxylic acid cyclopentyl ester]
22 | < 500 | 500 to 5000 | CC(Oc1c(N)ncc2c(-c3cnn(C4CCNCC4)c3)coc12)c1ccc(Cl)cc1F (centres unmarked) [Example 378, 7-[1-(4-Chloro-2-fluorophenyl)ethoxy]-3-(1-piperidin-4-yl-1H-pyrazol-4-yl)furo[3,2-c]pyridin-6-ylamine]
